Data from PMC9762201 (Current Research in Pharmacology and Drug Discovery, 2022).
Entries after “also recorded” stand apart in the source; their conditions may differ.

Assays:
[1] = system: α1A-AR; assay: cAMP assay and PAM assay in Rat-1 fibroblasts expressing α1A-AR; assay type: cell-based; details: for PAM activity (NE-mediated cAMP potentiation, PAM assay): NE 10^−4 M held constant, compound dose-response; for intrinsic (basal) agonist activity, cAMP: compound alone, dose-response
[2] = biological target: T1, α1A-AR (Homo sapiens, UniProt P35348); assay: Total inositol phosphate assay in Rat-1 fibroblasts expressing α1A-AR; assay type: cell-based; details: for intrinsic (basal) agonist activity, inositol phosphate: compound alone, dose-response
T1 sequence (P35348 1-466): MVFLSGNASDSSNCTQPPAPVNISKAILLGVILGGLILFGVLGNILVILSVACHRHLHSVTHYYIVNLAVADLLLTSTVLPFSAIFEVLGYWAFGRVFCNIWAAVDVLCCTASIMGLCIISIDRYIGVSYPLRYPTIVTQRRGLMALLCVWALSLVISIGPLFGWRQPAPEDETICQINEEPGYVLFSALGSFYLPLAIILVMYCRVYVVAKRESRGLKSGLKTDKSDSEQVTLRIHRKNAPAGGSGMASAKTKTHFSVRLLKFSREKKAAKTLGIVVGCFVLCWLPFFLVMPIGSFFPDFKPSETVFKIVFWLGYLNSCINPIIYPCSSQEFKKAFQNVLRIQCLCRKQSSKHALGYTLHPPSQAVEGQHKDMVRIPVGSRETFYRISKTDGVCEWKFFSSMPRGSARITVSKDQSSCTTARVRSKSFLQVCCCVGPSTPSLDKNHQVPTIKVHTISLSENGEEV

[3] = biological target: T1, α1A-AR; assay type: binding; details: for extent of inhibition of 125I-HEAT binding at α1A-AR: 0.5 mM GTP
[4] = system: α1B-AR; assay type: binding; details: 0.5 mM GTP
[5] = biological target: T2, α1D-AR (Homo sapiens, UniProt P25100); assay type: binding; details: 0.5 mM GTP
T2 sequence (P25100 1-572): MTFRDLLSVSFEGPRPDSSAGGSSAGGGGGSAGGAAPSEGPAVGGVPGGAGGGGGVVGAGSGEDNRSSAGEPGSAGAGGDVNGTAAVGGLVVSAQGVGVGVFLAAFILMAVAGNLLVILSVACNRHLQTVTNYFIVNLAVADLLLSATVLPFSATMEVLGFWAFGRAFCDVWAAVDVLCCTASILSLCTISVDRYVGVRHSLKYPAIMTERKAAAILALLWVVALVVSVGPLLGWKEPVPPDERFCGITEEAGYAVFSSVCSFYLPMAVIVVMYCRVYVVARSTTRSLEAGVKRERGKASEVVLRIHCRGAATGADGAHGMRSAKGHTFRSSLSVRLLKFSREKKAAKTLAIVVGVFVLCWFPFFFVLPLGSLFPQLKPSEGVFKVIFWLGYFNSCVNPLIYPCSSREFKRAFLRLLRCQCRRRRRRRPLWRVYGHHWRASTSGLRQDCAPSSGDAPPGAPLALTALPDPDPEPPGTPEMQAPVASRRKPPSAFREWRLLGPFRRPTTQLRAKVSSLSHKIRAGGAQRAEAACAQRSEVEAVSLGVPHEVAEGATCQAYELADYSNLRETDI

[6] = biological target: T1, α1A-AR; details: ref Hwa et al., 1995; cited from earlier work
[7] = biological target: T3, α2A-AR (Homo sapiens, UniProt P08913); assay type: binding; details: Cos-1 membranes
T3 sequence (P08913 1-465): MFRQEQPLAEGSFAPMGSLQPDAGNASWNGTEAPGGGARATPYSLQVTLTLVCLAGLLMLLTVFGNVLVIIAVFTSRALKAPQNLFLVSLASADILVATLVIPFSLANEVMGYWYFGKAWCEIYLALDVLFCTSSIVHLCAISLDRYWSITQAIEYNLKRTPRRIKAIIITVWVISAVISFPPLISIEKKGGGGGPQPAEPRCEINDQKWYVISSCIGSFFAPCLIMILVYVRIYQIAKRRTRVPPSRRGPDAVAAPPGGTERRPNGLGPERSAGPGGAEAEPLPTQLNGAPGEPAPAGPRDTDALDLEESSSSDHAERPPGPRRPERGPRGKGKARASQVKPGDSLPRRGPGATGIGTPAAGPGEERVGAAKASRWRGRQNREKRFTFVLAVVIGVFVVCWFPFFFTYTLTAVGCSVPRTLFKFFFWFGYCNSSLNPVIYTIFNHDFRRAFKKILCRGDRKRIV

Row | SMILES | intrinsic (basal) agonist activity, inositol phosphate [2] | PAM activity (NE-mediated cAMP potentiation, PAM assay) [1] | intrinsic (basal) agonist activity, cAMP [1] | other results
1 | CC(C)Cc1c(OCC2=NCCN2)ccc(Cl)c1N(C)S(C)(=O)=O.Cl [Cmpd-7, N-(6-Chloro-3-((4,5-dihydro-1H-imidazol-2-yl)methoxy)-2-isobutylphenyl)-N-methylmethanesulfonamide hydrochloride] | – | abolished PAM activity | – | –
2 | NC[C@H](O)c1ccc(O)c(O)c1 [NE, norepinephrine] | – | – | – | fraction of receptor in the high affinity state, NE alone ([3]; absence of GTP): 15%
3 | c1ccc(C2CC2)c(OCC2=NCCN2)c1 [cirazoline, reference compound] | partial agonists | competitive inhibition; also recorded: neither RO115-1240 nor cirazoline displayed any PAM characteristics | partial agonists; also recorded: greater intrinsic activity than RO115-1224 | extent of inhibition of 125I-HEAT binding at α1A-AR [3]: fully inhibit; also recorded: completely inhibited; effect on NE binding at α1A-AR ([3]; compound 10^−5 M, absence of GTP, 125I-HEAT): fully-inhibited the binding of NE; also recorded: completely competes off NE binding; binding at α1B-AR (125I-HEAT competition) [4]: completely inhibited; extent of inhibition of 125I-HEAT binding at α1D-AR [5]: completely inhibited; effect on Epi-mediated cAMP response at α1A-AR ([1]; Epi dose-response, propranolol and rauwolscine present): rightward curve-shifting effects; also recorded: rightward shifting competitive effects; effect on NE-mediated cAMP response at α1A-AR ([1]; NE dose-response, propranolol and rauwolscine present): rightward curve-shifting effects; also recorded: rightward shifting competitive effects; selectivity for α1A-AR against the α1B- and α1D-AR subtypes [6]: 10-50 fold
4 | Cc1ccc(N(CC2=NCCN2)c2cccc(O)c2)cc1 [phentolamine] | – | – | – | extent of inhibition of 125I-HEAT binding at α1A-AR [3]: fully inhibit; also recorded: completely inhibited
5 | COC(=O)[C@H]1[C@H]2C[C@H]3c4[nH]c5ccccc5c4CCN3C[C@H]2CC[C@@H]1O [rauwolscine, reference compound] | – | – | – | extent of inhibition of 3H-RX821002 binding at α2A-AR [7]: fully inhibited

Now from value to compound, other results behind:

Row | intrinsic (basal) agonist activity, inositol phosphate [2] | SMILES | PAM activity (NE-mediated cAMP potentiation, PAM assay) [1] | intrinsic (basal) agonist activity, cAMP [1] | other results
6 | do not show any basal activity | CC(C)CCc1c(OCC2=NCCN2)cccc1N(C)S(C)(=O)=O.Cl [Cmpd-10, N-(3-((4,5-Dihydro-1H-imidazol-2-yl)methoxy)-2-isopentylphenyl)-N-methylmethanesulfonamide hydrochloride] | retained PAM activity; also recorded: display PAM effect | do not show any basal activity | –
7 | do not show any basal activity | CC(C)Cc1c(OCC2=NCCN2)cccc1N(C)S(=O)(=O)C(C)C.Cl [Cmpd-12, N-(3-((4,5-Dihydro-1H-imidazol-2-yl)methoxy)-2-isobutylphenyl)-N-methylpropane-2-sulfonamide hydrochloride] | lost PAM activity; also recorded: display competitive inhibition; also recorded: abolished PAM activity | do not show any basal activity | –
8 | do not show any basal activity | CN(c1cccc(OCC2=NCCN2)c1CC(F)(F)F)S(C)(=O)=O.Cl [Cmpd-13, N-(3-((4,5-Dihydro-1H-imidazol-2-yl)methoxy)-2-(2,2,2-trifluoroethyl)phenyl)-N-methylmethanesulfonamide hydrochloride] | lost PAM activity; also recorded: display competitive inhibition; also recorded: abolishes PAM activity | do not show any basal activity | –
9 | do not show any basal activity | CN(c1cccc(OCC2=NCCN2)c1CC(C)(C)C)S(C)(=O)=O.Cl [Cmpd-14, N-(3-((4,5-Dihydro-1H-imidazol-2-yl)methoxy)-2-neopentylphenyl)-N-methylmethanesulfonamide hydrochloride] | retained PAM activity; also recorded: display PAM effect | do not show any basal activity | –
10 | partial agonists | Cc1c(OCC2=NCCN2)ccc(Cl)c1NS(C)(=O)=O [RO115-1240, Dabuzalgron, reference compound] | neither RO115-1240 nor cirazoline displayed any PAM characteristics | partial agonists | effect on Epi-mediated inositol phosphate signal at α1A-AR [2]: effects consistent with a partial or full agonist; effect on NE-mediated inositol phosphate signal at α1A-AR [2]: effects consistent with a partial or full agonist
